Experiment: Mice serum protein binding assay (equilibrium dialysis, RED Device)
Format: in vitro ADME
Conditions: CD-1 (ICR), mouse, pH 7.4, murine serum, 37° C., 5 to 6 hours, read-out: Protein binding rate (converted)
Protocol: The protein binding rate was determined by equilibrium dialysis method using the RED Device (8K MWCO, Rapid Equilibrium Dialysis Device, Thermo Scientific). The test substances that had been dissolved in DMSO were added to the serum that was collected from Cr1: CD-1 (ICR) mice fasted overnight, so that the final concentration of DMSO became 1% (v/v). The serum to which the test substance had been added was added to the inner side of the dialysis membrane of the RED Device, and PBS (phosphate buffer saline, pH 7.4) containing 0.01% (v/v) Tween 80 was added to the outside in accordance with the method for using the RED Device and incubated at 37° C. for 5 to 6 hours with ellipsoidal shaking at 100 rpm so that the concentration of the unbound test substance in the serum and the concentration of the test substance in the PBS reached equilibrium. […] The proteins were removed from the measurement sample by adding acetonitrile in an amount of 5-fold or more of the amount of the internal standard substance and the serum sample, and the supernatants were measured by LC/MS/MS (liquid chromatograph-triple quadrupole mass spectrometer). The serum samples were measured after suitably diluting with distilled water as necessary. […]
However, in the case when the concentration in the sample was calculated by using a calibration curve, A and B were as follows.

- fraction unbound: 0.068
Compound: CC[C@]1(c2cccc(NS(C)(=O)=O)c2)[C@@H]2CN(CC3(O)Cc4ccccc4C3)C[C@@H]21 [Comparative Compound 1, N-(3-{(1R,5S,6r)-6-ethyl-3-[(2-hydroxy-2,3-dihydro-1H-inden-2-yl)methyl]-3-azabicyclo[3.1.0]hexan-6-yl}phenyl)methanesulfonamide methanesulfonate]
